Here are results for two compounds from patent publication US20040214849A1, “Parenteral administration of 6-hydroxy-oxymorphone for use as an analgesic” (priority 2001, published 2004).

For one data set, the system named is Opiate, Delta 1. Briefly: Opiate Delta 1 receptor binding assay.
A short description of data set [1]: Pharmacokinetic study: blood plasma levels over 12 hours after administration of oxymorphone. Format: in vivo. Here is the method:
(§1) In separate studies, blood plasma levels and indications of pain relief were recorded over a 12 hour period. FIGS. 1-4 show graphical representation of the data combining the two studies such that the effect of blood plasma levels on pain can be evaluated.
After this time, oxymorphone levels again drop and eventually fall to levels near the earlier plateau.

Data set [2] addresses T1, Opiate, Kappa (Human Recombinant) (Homo sapiens, UniProt P41145).
T1 construct: expressed in transfected cells
Briefly: Opiate Kappa receptor binding assay.

The next data set concerns pain. Briefly: Pain relief (PID / categorical pain scores) compared with blood plasma levels. The note with it: based on the pharmacokinetic studies. Format: in vivo. On the procedure:
as §1
The amount administered will be dependent upon normal criteria such as patient weight, intensity of pain, and other factors. Based on the pharmacokinetic studies blood plasma levels around at least 0.05 ng/mL will provide some analgesia. The upper plasma level limit will be ultimately established by safety concerns. […] Subsequent doses may be required to maintain these blood levels.

Data set [3] addresses T2, Opiate, Mu (Human Recombinant) (Homo sapiens, UniProt P35372).
T2 construct: expressed in transfected cells
Description: Opiate Mu receptor binding assay.

Data set [4] deals with T3, Opiate, Delta 2 (Human Recombinant) (Homo sapiens, UniProt P41143).
T3 construct: expressed in transfected cells
Description: Opiate Delta 2 receptor binding assay.

T1 sequence (P41145 whole entry): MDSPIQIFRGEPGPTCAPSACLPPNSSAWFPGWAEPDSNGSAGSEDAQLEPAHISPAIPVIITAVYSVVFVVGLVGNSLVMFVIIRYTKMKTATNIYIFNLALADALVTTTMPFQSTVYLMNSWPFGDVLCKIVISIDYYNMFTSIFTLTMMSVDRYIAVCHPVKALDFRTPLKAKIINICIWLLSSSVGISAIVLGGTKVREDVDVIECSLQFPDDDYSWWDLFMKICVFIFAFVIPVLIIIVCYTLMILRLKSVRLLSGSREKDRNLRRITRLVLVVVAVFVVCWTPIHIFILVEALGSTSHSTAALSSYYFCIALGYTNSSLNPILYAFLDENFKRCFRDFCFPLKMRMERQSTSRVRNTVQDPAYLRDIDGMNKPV
T3 sequence (P41143 whole entry): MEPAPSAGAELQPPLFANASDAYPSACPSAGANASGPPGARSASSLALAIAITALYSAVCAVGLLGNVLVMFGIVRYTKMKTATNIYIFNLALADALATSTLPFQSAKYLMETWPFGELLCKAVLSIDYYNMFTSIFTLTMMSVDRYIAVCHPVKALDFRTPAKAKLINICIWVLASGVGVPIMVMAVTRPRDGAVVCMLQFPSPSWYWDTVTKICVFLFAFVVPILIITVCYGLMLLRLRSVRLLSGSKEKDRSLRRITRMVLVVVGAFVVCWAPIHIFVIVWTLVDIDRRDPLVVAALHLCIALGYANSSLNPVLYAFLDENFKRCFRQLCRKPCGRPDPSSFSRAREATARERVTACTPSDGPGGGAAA
T2 sequence (P35372 whole entry): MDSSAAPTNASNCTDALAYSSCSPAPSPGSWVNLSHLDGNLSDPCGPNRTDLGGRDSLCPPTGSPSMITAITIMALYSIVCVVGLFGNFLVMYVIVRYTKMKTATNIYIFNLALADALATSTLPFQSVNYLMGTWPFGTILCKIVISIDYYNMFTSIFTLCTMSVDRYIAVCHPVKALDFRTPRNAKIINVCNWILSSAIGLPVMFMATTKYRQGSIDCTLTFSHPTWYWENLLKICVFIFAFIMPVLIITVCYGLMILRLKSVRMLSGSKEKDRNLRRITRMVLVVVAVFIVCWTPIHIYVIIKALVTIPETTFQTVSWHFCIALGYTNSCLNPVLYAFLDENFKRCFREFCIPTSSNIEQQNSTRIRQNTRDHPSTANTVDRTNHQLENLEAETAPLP

Regarding `CN1CC[C@]23c4c5ccc(O)c4O[C@H]2C(O)CC[C@@]3(O)[C@H]1C5` (stereo partly shown) [6-hydroxy oxymorphone], the “binding, Opiate Delta 1” value in the data set on Opiate, Delta 1 (10 nm (1.0 E−8)) is recorded as −4.12%; in the data set on Opiate, Delta 1 (10 μm (1.0 E−5)) it was 90.48%. Also, the “time of peak blood plasma level” value in data set [1] (after administration of oxymorphone) was at most 2 h. The “binding, Opiate Kappa (Human Recombinant)” value in data set [2] (10 nm (1.0 E−8)) is listed as 2.45%; in data set [2] (10 μm (1.0 E−5)) it was 62.47%. The “blood plasma level that will provide some analgesia” value in the data set on pain was “at least 0.05 ng/mL”. Further, the “binding, Opiate Mu (Human Recombinant)” value in data set [3] (10 nm (1.0 E−8)) was 63.16%; in data set [3] (10 μm (1.0 E−5)), 99.91%. Besides, the “binding, Opiate Delta 2 (Human Recombinant)” value stood at 7.19% in data set [4] (10 nm (1.0 E−8)) and 55.45% in data set [4] (10 μm (1.0 E−5)).
As for `CN1CC[C@]23c4c5ccc(O)c4O[C@H]2C(=O)CC[C@@]3(O)[C@H]1C5` [oxymorphone], the “binding, Opiate Delta 1” value is given as −18.26% in the data set on Opiate, Delta 1 (10 nm (1.0 E−8)) and 89.03% in the data set on Opiate, Delta 1 (10 μm (1.0 E−5)). The “time of second spike of blood plasma level” value in data set [1] (from administration of oxymorphone) was in the range of 4 to 6 h.
